According to ChEMBL document CHEMBL1156473, “Crystal structure of human estrogen-related receptor alpha in complex with a synthetic inverse agonist reveals its novel molecular mechanism” (J Biol Chem, 2007):

Columns and labels:
[1] = Binding affinity to ERRalpha C325S mutant ligand binding domain expressed in sf9 cells by isothermal titration calorimetry
[2] = target: T1, Steroid hormone receptor ERR1 (Homo sapiens, UniProt P11474); assay: Binding affinity to ERRalpha ligand binding domain by FRET assay
T1 sequence (P11474 whole entry): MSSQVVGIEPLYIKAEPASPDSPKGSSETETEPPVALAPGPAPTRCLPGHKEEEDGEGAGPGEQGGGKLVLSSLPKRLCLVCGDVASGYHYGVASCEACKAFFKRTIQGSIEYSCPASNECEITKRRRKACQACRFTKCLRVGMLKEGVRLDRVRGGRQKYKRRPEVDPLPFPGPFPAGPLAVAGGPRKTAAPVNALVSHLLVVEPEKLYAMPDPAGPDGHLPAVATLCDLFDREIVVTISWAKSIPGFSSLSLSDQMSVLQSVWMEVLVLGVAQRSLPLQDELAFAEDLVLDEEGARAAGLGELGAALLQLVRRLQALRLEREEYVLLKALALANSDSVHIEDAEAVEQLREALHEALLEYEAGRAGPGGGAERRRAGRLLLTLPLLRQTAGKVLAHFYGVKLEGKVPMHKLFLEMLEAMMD

[3] = target: T1, Steroid hormone receptor ERR1; assay: Binding affinity to wild type ERRalpha ligand binding domain by isothermal titration calorimetry

With c1ccc(-n2cc(CNCC3CCCCC3)c3ccccc32)cc1 the Kd [1] was 930 nM, the IC50 [2] was 700 nM and the Kd [3] was 770 nM.
